Laboratory results taken from patent publication US12522601B2, “1,3,4-oxadiazole derivative compounds as histone deacetylase 6 inhibitor, and the pharmaceutical composition comprising the same” (CHONG KUN DANG PHARMACEUTICAL CORP., priority 2020, dated 2026).

Assays:
human recombinant HDAC1 = biological target: T1, human recombinant HDAC1 (Homo sapiens, UniProt Q13547); test: In vitro HDAC enzyme activity inhibition assay, HDAC1 (HDAC Fluorimetric Drug Discovery Kit); assay type: biochemical; conditions: human recombinant HDAC1, Fluor de Lys-SIRT1 substrate 10 μM, 30° C. for 60 minutes
T1 construct: purchased Enzo Life Sciences, Inc. BML-SE456
How it was run: (§1)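 Both HDAC1 and HDAC6 (human recombinant, 0.3 μg) tested identically: 10 μM fluorogenic Fluor de Lys-SIRT1 substrate, reaction 60 min at 30° C, developer added for 30 min. IC50 calculated from Ex 360/Em 460 signal over 5-fold serial dilutions.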

human recombinant HDAC6 = biological target: T2, human recombinant HDAC6 (Homo sapiens, UniProt Q9UBN7); test: In vitro HDAC enzyme activity inhibition assay, HDAC6 (HDAC Fluorimetric Drug Discovery Kit); assay type: biochemical; conditions: for HDAC6 Selectivity (fold): HDAC6 versus HDAC1; for IC50: human recombinant HDAC6, same protocol as the HDAC1 test
T2 construct: purchased Calbiochem Inc. 382180
T2 sequence (Q9UBN7 1-1215): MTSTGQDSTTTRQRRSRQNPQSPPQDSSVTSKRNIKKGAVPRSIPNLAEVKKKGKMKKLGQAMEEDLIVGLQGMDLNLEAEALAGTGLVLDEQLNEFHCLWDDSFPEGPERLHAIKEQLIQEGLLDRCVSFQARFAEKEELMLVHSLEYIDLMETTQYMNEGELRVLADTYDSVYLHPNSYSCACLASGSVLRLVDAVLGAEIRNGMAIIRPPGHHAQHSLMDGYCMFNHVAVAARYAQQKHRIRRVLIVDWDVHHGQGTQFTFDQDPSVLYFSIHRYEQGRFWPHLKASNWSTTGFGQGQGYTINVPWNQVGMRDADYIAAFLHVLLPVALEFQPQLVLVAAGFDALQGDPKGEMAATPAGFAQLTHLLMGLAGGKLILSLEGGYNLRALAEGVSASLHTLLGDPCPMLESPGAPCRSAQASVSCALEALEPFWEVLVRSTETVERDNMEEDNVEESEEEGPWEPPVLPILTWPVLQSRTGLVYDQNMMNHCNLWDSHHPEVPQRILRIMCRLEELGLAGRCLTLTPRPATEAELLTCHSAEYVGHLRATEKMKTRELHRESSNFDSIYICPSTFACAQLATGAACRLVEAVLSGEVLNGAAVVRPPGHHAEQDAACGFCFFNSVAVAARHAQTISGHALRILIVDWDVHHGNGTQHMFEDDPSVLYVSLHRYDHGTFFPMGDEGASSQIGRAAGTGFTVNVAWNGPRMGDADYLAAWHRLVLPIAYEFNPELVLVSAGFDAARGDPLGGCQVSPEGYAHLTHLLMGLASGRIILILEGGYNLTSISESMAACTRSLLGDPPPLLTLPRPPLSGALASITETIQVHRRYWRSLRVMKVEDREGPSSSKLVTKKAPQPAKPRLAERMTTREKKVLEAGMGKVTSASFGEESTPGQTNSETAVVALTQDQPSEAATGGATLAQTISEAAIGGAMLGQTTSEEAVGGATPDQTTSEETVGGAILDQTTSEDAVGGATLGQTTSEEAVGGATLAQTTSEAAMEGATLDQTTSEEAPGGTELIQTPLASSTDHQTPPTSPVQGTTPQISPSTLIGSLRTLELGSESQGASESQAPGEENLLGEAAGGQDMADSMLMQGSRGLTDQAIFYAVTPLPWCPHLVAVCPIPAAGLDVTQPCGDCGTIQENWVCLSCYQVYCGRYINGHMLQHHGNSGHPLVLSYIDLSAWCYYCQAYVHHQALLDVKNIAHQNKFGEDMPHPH
How it was run: as §1

T1 sequence (Q13547 whole entry): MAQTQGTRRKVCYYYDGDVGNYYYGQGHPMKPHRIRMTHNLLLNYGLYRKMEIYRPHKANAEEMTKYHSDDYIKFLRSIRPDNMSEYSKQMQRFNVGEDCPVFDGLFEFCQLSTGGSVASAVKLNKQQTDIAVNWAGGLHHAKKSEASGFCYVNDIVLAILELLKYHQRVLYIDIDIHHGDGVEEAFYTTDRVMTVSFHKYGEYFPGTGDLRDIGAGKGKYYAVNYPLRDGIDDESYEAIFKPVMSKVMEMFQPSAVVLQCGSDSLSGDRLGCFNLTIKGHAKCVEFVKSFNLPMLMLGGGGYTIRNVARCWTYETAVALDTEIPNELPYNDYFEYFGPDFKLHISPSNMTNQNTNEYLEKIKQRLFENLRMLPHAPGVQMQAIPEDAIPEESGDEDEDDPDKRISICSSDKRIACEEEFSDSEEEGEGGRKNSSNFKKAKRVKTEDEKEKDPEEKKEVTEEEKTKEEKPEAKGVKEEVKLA

FC(F)c1nnc(-c2ccn3cc(Cc4ccc(Cl)cc4)nc3c2)o1 [Compound 3593, 2-(2-(4-chlorobenzyl)imidazo[1,2-a]pyridin-7-yl)-5-(difluoromethyl)-1,3,4-oxadiazole]
IC50 (human recombinant HDAC1): > 50000 nM
HDAC6 Selectivity (fold) (human recombinant HDAC6): 191 fold
IC50 (human recombinant HDAC6): 261 nM

COC(=O)N1CC(C(=O)N(Cc2cn3ccc(-c4nnc(C(F)F)o4)cc3n2)c2cccc(F)c2)C1 [Compound 4204, methyl 3-(((7-(5-(difluoromethyl)-1,3,4-oxadiazol-2-yl)imidazo[1,2-a]pyridin-2-yl)methyl)(3-fluorophenyl)carbamoyl) azetidine-1-carboxylate]
IC50 (human recombinant HDAC1): > 50000 nM
HDAC6 Selectivity (fold) (human recombinant HDAC6): 268 fold
IC50 (human recombinant HDAC6): 187 nM

O=C(N1CCN(C2CCC2)CC1)N(Cc1cn2ccc(-c3nnc(C(F)F)o3)cc2n1)c1ccccc1 [Compound 4036, 4-cyclobutyl-N-((7-(5-(difluoromethyl)-1,3,4-oxadiazol-2-yl)imidazo[1,2-a]pyridin-2-yl)methyl)-N-phenylpiperazine-1-carboxamide]
IC50 (human recombinant HDAC1): > 50000 nM
HDAC6 Selectivity (fold) (human recombinant HDAC6): 321 fold
IC50 (human recombinant HDAC6): 156 nM

CC(CO)N1CCC(C(=O)N(Cc2cn3ccc(-c4nnc(C(F)F)o4)cc3n2)c2cccc(F)c2)CC1 (stereo not drawn) [Compound 4140, N-((7-(5-(difluoromethyl)-1,3,4-oxadiazol-2-yl)imidazo[1,2-a]pyridin-2-yl)methyl)-N-(3-fluorophenyl)-1-(1-hydroxypropan-2-yl)piperidine-4-carboxamide]
IC50 (human recombinant HDAC1): > 50000 nM
HDAC6 Selectivity (fold) (human recombinant HDAC6): 246 fold
IC50 (human recombinant HDAC6): 203 nM

O=C(C1CCN(C(=O)C(F)(F)F)CC1)N(Cc1cn2ccc(-c3nnc(C(F)F)o3)cc2n1)c1ccccc1 [Compound 4127, N-((7-(5-(difluoromethyl)-1,3,4-oxadiazol-2-yl)imidazo[1,2-a]pyridin-2-yl)methyl)-N-phenyl-1-(2,2,2-trifluoroacetyl)piperidine-4-carboxamide]
IC50 (human recombinant HDAC1): > 50000 nM
HDAC6 Selectivity (fold) (human recombinant HDAC6): 82 fold
IC50 (human recombinant HDAC6): 612 nM

FC(F)c1nnc(-c2ccn3cc(Cc4ccc5c(c4)OCO5)nc3c2)o1 [Compound 3596, 2-(2-(benzo[d][1,3]dioxol-5-ylmethyl)imidazo[1,2-a]pyridin-7-yl)-5-(difluoromethyl)-1,3,4-oxadiazole]
IC50 (human recombinant HDAC1): > 50000 nM
HDAC6 Selectivity (fold) (human recombinant HDAC6): 160 fold
IC50 (human recombinant HDAC6): 313 nM

Fc1ccc(Cc2cn3ccc(-c4nnc(C(F)F)o4)cc3n2)cc1F [Compound 3587, 2-(2-(3,4-difluorobenzyl)imidazo[1,2-a]pyridin-7-yl)-5-(difluoromethyl)-1,3,4-oxadiazole]
IC50 (human recombinant HDAC1): > 50000 nM
HDAC6 Selectivity (fold) (human recombinant HDAC6): 150 fold
IC50 (human recombinant HDAC6): 334 nM

O=C(C1CCC1)N1CCN(C(=O)N(Cc2cn3ccc(-c4nnc(C(F)F)o4)cc3n2)c2ccccc2)CC1 [Compound 4043, 4-(cyclobutanecarbonyl)-N-((7-(5-(difluoromethyl)-1,3,4-oxadiazol-2-yl)imidazo[1,2-a]pyridine-2-yl)methyl)-N-phenylpiperazine-1-carboxamide]
IC50 (human recombinant HDAC1): > 50000 nM
HDAC6 Selectivity (fold) (human recombinant HDAC6): 302 fold
IC50 (human recombinant HDAC6): 166 nM

CC(=O)N1CCC(C(=O)N(Cc2cn3ccc(-c4nnc(C(F)F)o4)cc3n2)c2ccccc2)CC1 [Compound 4122, 1-acetyl-N-((7-(5-(difluoromethyl)-1,3,4-oxadiazol-2-yl)imidazo[1,2-a]pyridin-2-yl)methyl)-N-phenylpiperidine-4-carboxamide]
IC50 (human recombinant HDAC1): > 50000 nM
HDAC6 Selectivity (fold) (human recombinant HDAC6): 142 fold
IC50 (human recombinant HDAC6): 353 nM

CN1CCC(C(=O)N(Cc2cn3ccc(-c4nnc(C(F)F)o4)cc3n2)c2cccc(F)c2)CC1 [Compound 4137, N-((7-(5-(difluoromethyl)-1,3,4-oxadiazol-2-yl)imidazo[1,2-a]pyridin-2-yl)methyl)-N-(3-fluorophenyl)-1-methylpiperidine-4-carboxamide]
IC50 (human recombinant HDAC1): > 50000 nM
HDAC6 Selectivity (fold) (human recombinant HDAC6): 283 fold
IC50 (human recombinant HDAC6): 177 nM

CCC(=O)N1CCC(C(=O)N(Cc2cn3ccc(-c4nnc(C(F)F)o4)cc3n2)c2cccc(F)c2)CC1 [Compound 4147, N-((7-(5-(difluoromethyl)-1,3,4-oxadiazol-2-yl)imidazo[1,2-a]pyridin-2-yl)methyl)-N-(3-fluorophenyl)-1-propionylpiperidine-4-carboxamide]
IC50 (human recombinant HDAC1): > 50000 nM
HDAC6 Selectivity (fold) (human recombinant HDAC6): 126 fold
IC50 (human recombinant HDAC6): 396 nM

Fc1ccc(NCc2cn3ccc(-c4nnc(C(F)F)o4)cc3n2)cn1 [Compound 3676, N-((7-(5-(difluoromethyl)-1,3,4-oxadiazol-2-yl)imidazo[1,2-a]pyridin-2-yl)methyl)-6-fluoropyridin-3-amine]
IC50 (human recombinant HDAC1): > 50000 nM
HDAC6 Selectivity (fold) (human recombinant HDAC6): 354 fold
IC50 (human recombinant HDAC6): 141 nM

CC(CO)N1CCN(C(=O)N(Cc2cn3ccc(-c4nnc(C(F)F)o4)cc3n2)c2cccc(F)c2)CC1 (stereo not drawn) [Compound 4086, N-((7-(5-(difluoromethyl)-1,3,4-oxadiazol-2-yl)imidazo[1,2-a]pyridin-2-yl)methyl)-N-(3-fluorophenyl)-4-(1-hydroxypropan-2-yl)piperazine-1-carboxamide]
IC50 (human recombinant HDAC1): > 50000 nM
HDAC6 Selectivity (fold) (human recombinant HDAC6): 249 fold
IC50 (human recombinant HDAC6): 201 nM

FC(F)c1nnc(-c2ccn3cc(CNc4ccc(C(F)(F)F)cc4)nc3c2)o1 [Compound 3673, N-((7-(5-(difluoromethyl)-1,3,4-oxadiazol-2-yl)imidazo[1,2-a]pyridin-2-yl)methyl)-4-(trifluoromethyl)aniline]
IC50 (human recombinant HDAC1): > 50000 nM
HDAC6 Selectivity (fold) (human recombinant HDAC6): 125 fold
IC50 (human recombinant HDAC6): 400 nM

Fc1cccc(NCc2cn3ccc(-c4nnc(C(F)F)o4)cc3n2)c1 [Compound 3670, N-((7-(5-(difluoromethyl)-1,3,4-oxadiazol-2-yl)imidazo[1,2-a]pyridin-2-yl)methyl)-3-fluoroaniline]
IC50 (human recombinant HDAC1): > 50000 nM
HDAC6 Selectivity (fold) (human recombinant HDAC6): 226 fold
IC50 (human recombinant HDAC6): 221 nM

CCN1CCC(C(=O)N(Cc2cn3ccc(-c4nnc(C(F)F)o4)cc3n2)c2cccc(F)c2)CC1 [Compound 4138, N-((7-(5-(difluoromethyl)-1,3,4-oxadiazol-2-yl)imidazo[1,2-a]pyridin-2-yl)methyl)-1-ethyl-N-(3-fluorophenyl)piperidine-4-carboxamide]
IC50 (human recombinant HDAC1): > 50000 nM
HDAC6 Selectivity (fold) (human recombinant HDAC6): 292 fold
IC50 (human recombinant HDAC6): 171 nM

O=C(C1CCN(c2ccccn2)CC1)N(Cc1cn2ccc(-c3nnc(C(F)F)o3)cc2n1)c1cccc(F)c1 [Compound 4156, N-((7-(5-(difluoromethyl)-1,3,4-oxadiazol-2-yl)imidazo[1,2-a]pyridin-2-yl)methyl)-N-(3-fluorophenyl)-1-(pyridin-2-yl)piperidine-4-carboxamide]
IC50 (human recombinant HDAC1): > 50000 nM
HDAC6 Selectivity (fold) (human recombinant HDAC6): 359 fold
IC50 (human recombinant HDAC6): 139 nM

Fc1ccc(OCc2cn3ccc(-c4nnc(C(F)F)o4)cc3n2)cc1F [Compound 3723, 2-(difluoromethyl)-5-(2-((3,4-difluorophenoxy)methyl)imidazo[1,2-a]pyridin-7-yl)-1,3,4-oxadiazole]
IC50 (human recombinant HDAC1): > 50000 nM
HDAC6 Selectivity (fold) (human recombinant HDAC6): 174 fold
IC50 (human recombinant HDAC6): 240 nM

CS(=O)(=O)N1CC(C(=O)N(Cc2cn3ccc(-c4nnc(C(F)F)o4)cc3n2)c2cccc(F)c2)C1 [Compound 4203, N-((7-(5-(difluoromethyl)-1,3,4-oxadiazol-2-yl)imidazo[1,2-a]pyridin-2-yl)methyl)-N-(3-fluorophenyl)-1-(methylsulfonyl) azetidine-3-carboxamide]
IC50 (human recombinant HDAC1): > 50000 nM
HDAC6 Selectivity (fold) (human recombinant HDAC6): 295 fold
IC50 (human recombinant HDAC6): 170 nM
